Experimental data published in patent publication US6696484B2, “Method and compositions for regulation of 5-alpha reductase activity” (University of Chicago Office of Technology and Intellectual …, priority 1997, dated 2004).

Tests used:
[1] = test system: LNCaP 104-R2 tumors; experiment: Growth of LNCaP 104-R2 tumors in castrated male nude mice; type: in vivo, BALB/c athymic (nude) mice
[2] = test system: LNCaP 104-R2 tumors; experiment: Expression of AR, c-myc and PSA by LNCaP 104-R2 tumors (ribonuclease protection assay, serum PSA immunoassay); type: in vivo, BALB/c athymic (nude) mice; conditions: after 1 week of TP treatment
From the text: (§1) BALB/c athymic (nude) male (LNCaP, PC-3 cell lines) and female (MCF-7 cell line) mice (Taconic Inc., Germantown, N.Y.), 5 to 7 weeks-old, were used. Mice were housed in a pathogen-free environment, four to five mice per cage. Cages (filter top), bedding and water were autoclaved before use. Feed was irradiated Pico Lab Mouse Chow 20 5058 (Purina). All procedures involving animals were approved by the University of Chicago Institutional Animal Care and Use Committee. For the tumor growth studies, 10^6 cells in 0.25 ml of culture medium were mixed with 0.25 ml of Matrigel™ (Collaborative Research, Bedford, Mass.) and were injected subcutaneously into one or both flanks of the mice as described previously (Liao et al., 1995). Tumor size was measured weekly and tumor volume was calculated using the formula L×W×H×0.52 (Janek and Hartman, 1975). Bilateral orchiectomy and subcutaneous implantation or removal of pellets were performed under Metofane anesthesia. Blood samples were obtained by heart puncture or from the orbital plexus while mice were under anesthesia and analyzed for testosterone levels by radioimmunoassay or PSA levels by dual-site reactive enzymatic immunoassay (Tandem®-E PSA, Hybritech, San Diego, Calif.). […] All numerical data are expressed as the average of the values obtained from 4 to 6 tumors and the standard error. […]

[3] = Biological effects of TP implants in nude mice (serum testosterone, seminal vesicle weight, body weight); type: in vivo, BALB/c athymic (nude) mice; conditions: 4th week after androgen implantation
From the text: as §1

[4] = test system: PC-3 tumors; experiment: Growth of PC-3 tumors in nude mice; type: in vivo, BALB/c athymic (nude) mice
[5] = test system: LNCaP 104-S tumors; experiment: Growth of LNCaP 104-S tumors in nude mice; type: in vivo, BALB/c athymic (nude) mice; conditions: TP implanted at the time of castration; from 299±27 (SE) mm^3; ±SE
[6] = test system: MCF-7 tumors; experiment: Growth of MCF-7 tumors in female nude mice; type: in vivo, BALB/c athymic (nude) mice
[7] = test system: LNCaP 104-S cells; experiment: Proliferation of LNCaP 104-S cells in culture; type: cell-based, human; conditions: 0.1 nM R1881 vs androgen-depleted media
Description: Androgen-dependent LNCaP 104-S (passage 37) and androgen-independent LNCaP 104-R±sublines were isolated as described previously (Kokontis et al., 1994). The characteristics of these cells in vitro were confirmed before injection into nude mice. […] LNCaP 104-R2 cells grew in charcoal-treated media without additional androgen. Their proliferation was not stimulated but was repressed by 0.1 nM R1881. LNCaP 104-S cells were maintained in DMEM (Gibco) supplemented with 1 nM 5α-DHT and 10% FBS (Summit Biotechnology) and LNCaP 104-R2 cells were maintained in DMEM supplemented with 10% FBS treated with charcoal to remove steroid (Kokontis et al., 1994). PC-3 and MCF-7 cell lines were obtained from the American Type Culture Collection (Rockville, Md.), and were maintained in DMEM supplemented with 10% FBS.

SMILES	LNCaP 104-R2 tumor size within 4 weeks after removal of TP ([1]; TP implanted at 4th week, removed at 7th week, regrew from 96±26 (SE) mm^3) [mm^3]	LNCaP 104-R2 tumor size four weeks after TP implantation ([1]; TP implanted at 7th week, from 884±64 (SE) mm^3) [mm^3]	increase of serum PSA [2]	increase of the level of PSA mRNA in tumor samples [2]	body weight of nude mice [3]	increase of seminal vesicle weight ([3]; vs castrates without TP)	effect on growth of AR negative PC-3 tumors [4]	LNCaP 104-S tumor size 4 weeks after castration with TP implant [5] [mm^3]	effect on growth of MCF-7 tumors [6]	increase of proliferation of LNCaP 104-S cells [7]
CCC(=O)O[C@H]1CC[C@H]2[C@@H]3CCC4=CC(=O)CC[C@]4(C)[C@H]3CC[C@]12C [TP, testosterone propionate]	641±157	208±33	more than 10 fold	more than 10 fold	no loss	about 10 times	did not affect	965±166	not affected	–
C[C@]1(O)CC[C@H]2[C@@H]3CCC4=CC(=O)CCC4=C3C=C[C@@]21C [R1881, 17 β-hydroxy-17 α-methyl-estra-4,9,11-trien-3-one]	–	–	–	–	–	–	–	–	–	10-13 fold
